Measured values as given in US12178908B2, “Tolerogenic liposomes and methods of use thereof” (AnTolRx, Inc., priority 2018, dated 2024).
≈ marks a conversion by molar mass, not a printed value. Like-named read-outs stand apart in the source and are kept apart here.

What was measured:
[1] = assay type: physicochemical
Procedure: A stability assessment was performed in which liposomes from batch 1 were stored in HBS for one month at 4° C. and re-assayed.
• Lipid ratios were varied in the following range for each lipid: • Egg PC or HEPC: ˜53-72 mol % • Cholesterol: ˜25-44 mol % • PEG2000-PE: 1.5 to 6.25 mol % ITE was fixed at 0.5% by weight to the total lipid mass for all the batches tested. ITE was added from a DMSO stock. Batches were observed daily for any signs of precipitation/aggregation

[2] = tested on: splenocytes of 2D2 mice; test: Proliferation of 2D2 splenocytes stimulated in vitro (Cell Titer Blue); assay type: cell-based; conditions: 10 μg MOG; 1 μg ITE; 72 hours at 37° C.
Procedure: Splenocytes were harvested from 2D2 mice, which express a transgenic 2D2 T cell […] (TCR) specific for MOG35-55 and stimulated in vitro with 10 μg of MOG delivered either freely (Free MOG), loaded in egg-PC liposomes alone (MOG-L) or loaded in egg-PC liposomes and additionally stimulated with ITE-loaded egg-PC liposomes (at a dose of 1 μg ITE). Cell proliferation was assessed after incubation at 37° C. for 72 hours using a Cell Titer Blue cell proliferation assay.

[3] = tested on: EAE; conditions: cited from earlier work
[4] = Solubility of ITE in conventional solvents; assay type: physicochemical
Description: 2-(1H-Indol-3-ylcarbonyl)-4-thiazolecarboxylic acid methyl ester (ITE) is a potent aryl hydrocarbon receptor agonist which is difficult to formulate in nanoparticulate form (including gold and PLGA nanoparticles and many conventional liposomal compositions, for example). […] ITE is also highly prone to self-aggregation.

For DMPC, the “stability (observation)” value [1] was “in liposome, not stable”.
For “Free MOG: MOG35-55 peptide MEVGWYRSPFSRVVHLYRNGK (SEQ ID NO: 82) delivered freely”, the 2D2 cell proliferation [2] was “induced 2D2 cell proliferation”.
In the case of `Clc1cc2c(cc1Cl)Oc1cc(Cl)c(Cl)cc1O2` [TCDD, 2,3,7,8-tetrachlorodibenzo-p-dioxin], the “potency relative to ITE in most in vivo studies” value ([3]; TCDD vs ITE) is given as ~1,000 fold, the EAE amelioration ([3]; dose of 100 ng, Quintana et al. Nature 2008) is given as “not” and the EAE amelioration ([3]; dose of 1 μg, Quintana et al. Nature 2008) is given as “ameliorated EAE”.
In the case of `COC(=O)c1csc(C(=O)c2c[nH]c3ccccc23)n1` [ITE, 2-(1H-Indol-3-ylcarbonyl)-4-thiazolecarboxylic acid methyl ester], the solubility ([4]; ethanol, organic solvent or mixture) is reported as ~3300 µM (≈ 945 µg/mL), the solubility ([4]; methanol, organic solvent or mixture) is reported as ~3000 µM (≈ 859 µg/mL) and the solubility ([4]; water) is reported as ~115 µM (≈ 32.9 µg/mL). The EAE amelioration ([3]; daily 200 μg per mouse, i.p. or orally, Quintana et al. PNAS 2010) was “ameliorated”.
